According to the OPERA property sets (Mansouri et al. 2018):
Converted amounts (≈) assume the structure as drawn.

SMILES | solubility (20 °C) [mM] | solubility (25 °C) [mM] | further results
CC(C)OC(=O)c1c(C(=O)O)cccc1[N+](=O)[O-] | 3.24 (≈ 820 µg/mL) | – | –
CSc1cc(O)cc(O)c1 | 16 (≈ 2500 µg/mL) | – | –
CC(NC(N)=O)NC(N)=O | – | – | solubility (28 °C): 256 mM (≈ 37400 µg/mL)
Nc1nc2c(O)cccc2s1 | 12 (≈ 2000 µg/mL) | – | –
CC1(C)CC(C(=O)O)C(C)(C)N1 (stereo unspecified) | – | – | solubility: 2920 mM (≈ 500000 µg/mL)
Nc1ccc(Cl)cc1[N+](=O)[O-] | 2.9 (≈ 500 µg/mL) | – | –
CC(C#N)(CCC(=O)O)/N=N/C(C)(C#N)CCC(=O)O (stereo unspecified) | 9.81 (≈ 2750 µg/mL) | – | –
Cc1nc2c(c(=O)n(C)c(=O)n2C)n1C | – | 35.5 (≈ 7400 µg/mL) | –
O=C1OCc2ccc3ccccc3c21 | – | – | solubility: 0.494 mM (≈ 91 µg/mL)
O=c1[nH]c(-c2ccccc2)ncc1Br | – | – | solubility: 0.332 mM (≈ 83.3 µg/mL)
CCC1OCCO1 | – | – | solubility: 1960 mM (≈ 200000 µg/mL)
c1ccc2c3c(ccc2c1)Nc1ccc2ccccc2c1S3 | 0.000132 (≈ 0.0396 µg/mL) | – | –
COc1cc2nccnc2c(N)c1OC | – | – | solubility (22 °C): 19.5 mM (≈ 4000 µg/mL)
CN(C)C(=O)c1cccc(C(=O)N(C)C)c1 | – | – | solubility (30 °C): 3070 mM (≈ 676000 µg/mL)
CCCCC(CCC(=O)O)CC(=O)O (stereo unspecified) | 40 (≈ 8100 µg/mL) | – | –
C[C@H](Nc1ccccc1Cl)C(=O)O (racemic) | – | – | solubility (30 °C): 4.71 mM (≈ 940 µg/mL)
O=C1CCCCCN1C(=O)c1ccccc1 | 6.81 (≈ 1480 µg/mL) | – | –
CCCCCN(N=Cc1ccc([N+](=O)[O-])o1)C(N)=O | – | 1.27 (≈ 340 µg/mL) | –
CCOC(=O)C(C)=CC(=O)[O-] | 94.2 | – | –
CC(=O)Nc1ccc(F)cc1C | 43.7 (≈ 7310 µg/mL) | – | –
CCSC(=S)N[C@@H](CC(=O)O)C(=O)O | – | 41.1 (≈ 9750 µg/mL) | –

SMILES | solubility (20 °C) [mM] | solubility (25 °C) [mM] | further results
CCOc1ccccc1C=CC(=O)[O-] | – | 1.19 | –
ON=C1CCCCC1 | – | 159 (≈ 18000 µg/mL) | –
CCOc1ccc(N(C(C)=O)C(C)=O)cc1 | – | 11.3 (≈ 2500 µg/mL) | –
CC(=O)OC(C)C#N (stereo unspecified) | – | – | solubility: 1770 mM (≈ 200000 µg/mL)
O=C(O)c1ccc([N+](=O)[O-])c(C(=O)O)c1 | – | 45.8 (≈ 9670 µg/mL) | –
CCC(C)CC(O)CC (stereo unspecified) | – | 13.8 (≈ 1800 µg/mL) | –
Nc1nc(N)nc(Cl)n1 | 4.12 (≈ 600 µg/mL) | – | –
N[C@@H](Cc1cc([N+](=O)[O-])c(O)c([N+](=O)[O-])c1)C(=O)O | – | – | solubility: 30.7 mM (≈ 8330 µg/mL)
C[Si](C)(O)O[Si](C)(C)O | – | 661 (≈ 110000 µg/mL) | –
Cc1cc(C)cc(OCC(=O)O)c1 | 4.44 (≈ 800 µg/mL) | – | –
O=C(O)c1ccccc1C(=O)c1ccc(Br)cc1 | – | – | solubility (30 °C): 0.983 mM (≈ 300 µg/mL)
CC(=O)C1CC(CC(=O)O)C1(C)C (stereo unspecified) | 266 (≈ 49000 µg/mL) | – | –
CCC1OC(=O)c2ccccc21 (stereo unspecified) | – | 17.9 (≈ 2900 µg/mL) | –
CCCCOP(=O)(CCCC)CCCC | – | 19.2 (≈ 4500 µg/mL) | –
CCCCCCCCNC(=O)c1cccnc1 | – | 0.982 (≈ 230 µg/mL) | –
CC(C)CC(c1ccc(O)cc1)c1ccc(O)cc1 | – | – | solubility: 0.429 mM (≈ 110 µg/mL)
CCOC(=O)c1ccc(O)c(Cl)c1 | – | – | solubility (30 °C): 0.598 mM (≈ 120 µg/mL)
NC(=O)C(Br)Br | 87.6 (≈ 19000 µg/mL) | – | –
CCCCCOC(=O)CCOCC | – | 6.37 (≈ 1200 µg/mL) | –
CC(C)[C@H](NCCC#N)C(=O)O | – | 75.2 (≈ 12800 µg/mL) | –
